Like-named read-outs stand apart in the source and are kept apart here.
Assays:
[1] = system: LNCaP prostate cancer cells; experiment: Cell proliferation assay (MTS) on LNCaP prostate cancer cells; assay type: cell-based; settings: Table 3, 3 days incubation
[2] = system: Shionogi mammary carcinoma cells (AR+); experiment: Cell proliferation assay (MTS) on Shionogi mammary carcinoma cells; assay type: cell-based; settings: Table 3, 3 days incubation
Protocol: Shionogi mammary carcinoma cells bearing androgen-sensitive (AR+) were routinely grown in Eagle's Minimal Essential Medium (MEM) (Sigma, Saint Louis, USA) supplemented with 5% (v/v) fetal bovine serum (FBS), penicillin (100 IU/ml), streptomycin sulphate (50 μg/ml), 1% (v/v) non-essential amino acids and dihydrotestosterone DHT (10^−8 M). For the assay, MEM devoid of the pH indicator phenol red was supplemented with 2% (v/v) charcoal-strippes FBS and the same concentrations of antibiotics and non-essential amino acids as above.

[3] = system: normal lymphocytes from peripheral blood; experiment: Cell proliferation assay (MTS) on normal lymphocytes
Protocol: (§1) All of the following cell lines were maintained under a CO2 humidified atmosphere at 37° C. The culture media were changed every 3-4 days and the cells were split once a week.
(§2) For the assay, the culture medium was the same.
(§3) The cell proliferation assay was performed using 3-(4,5-dimethylthiazol-2-yl)-5-(3-carboxymethoxyphenyl)2-(4-sulfophenyl)-2H-tetrazolium (MTS) (Cell Titer 96 Aqueous, Promega, USA). MTS is converted into water-soluble colored formazan by dehydrogenase enzymes present in metabolically active cells, which allows the measurement of the number of viable cells.
(§4) The cells were incubated at 37° C. and 5% CO2. The steroid derivatives of the present disclosure were dissolved in ethanol to prepare the 1×10^−2 M stock solutions. The stock solutions and doxorubicin (DOX) (Novapharm, Toronto, Canada) were diluted at multiple concentrations with culture media, added to each well, as indicated, and incubated for 3 days. Following each treatment, 20 μl MTS was added to each well and the mix was incubated for 4 h.

[4] = system: HL-60 acute promyelocytic leukemia cells; experiment: Cell proliferation assay (MTS) on HL-60 leukemia cells; assay type: cell-based, human;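 further: cells exposed to serially diluted compound for 3 days at 37 °C, then viable cell number read via MTS conversion to coloured formazan by metabolically active cells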
Protocol: as §1, §2, §3, §4

K-562 leukemia cells = experiment: Cell proliferation assay (MTS) on K-562 leukemia cells; assay type: cell-based; settings: Table 3, 3 days incubation
Protocol: as §1, §2, §3, §4

[5] = system: WI-38 diploid fibroblasts; experiment: Cell proliferation assay (MTS) on WI-38 normal fibroblasts; assay type: cell-based, human; settings: Table 3, normal cells, 3 days incubation
Protocol: WI-38 diploid fibroblasts derived from embryonic human lung were cultured in MEM (devoid of the pH indicator phenol red) supplemented with 10% (v/v) FBS, L-glutamine (2 nM), penicillin (100 IU/ml), streptomycin sulphate (50 μg/ml), sodium pyruvate (1 mM) and non-essential amino acids (0.1 mM).
as §3, §4

[6] = Plasmatic concentration (AUC) of aminosteroids after a single subcutaneous injection in rat; settings: 2.3 mg/kg
Protocol: Animals: Six to seven week-old male Sprague-Dawley rats (Crl:CD®(SD)Br VAF/Plus™) weighing approximately 220 g were obtained from Charles-River, Inc (St-Constant, Qc., Canada). The animals were acclimatized to environmental conditions (temperature: 22±3° C.; humidity: 50±20%; 12-h light/12-h dark cycles, lights on at 07:15 h) for at least 5 days before starting the experiment. The animals were housed three per cage and were allowed free access to water and a certified commercial rodent food (Rodent Diet #T.2018.15, Harlan Teklad, Madison, Wis., U.S.A.) and were randomized according to their body weight.
Assay: A pharmacokinetic study was carried out following one subcutaneous (s.c.) injection of the aminosteroids at one concentration (2.3 mg/kg of body weight in 0.5 mL of vehicle fluid). The compound was first dissolved in Ethanol (EtOH) followed by the addition of propylene glycol such that a final concentration of EtOH of 8% was obtained. During this experiment, the rats were housed individually and were fasted for 8h before injection of the aminosteroid. Blood samples for determination of aminosteroid plasma concentration were collected at the jugular vein (0.4 mL by animal) at target intervals of 3, 7, 12 and 24 h (or 3 and 12 h) post-dose from six rats per time point (Tables 5, 6 and 7). After the collect at 7 h, a replacement fluid (0.9% sodium chloride injection USP) was injected in the rat. Blood samples were collected in Microvette potassium-EDTA (ethylenediamine tetra-acetic acid)-coated tubes (Sarstedt, Aktiengesellchaft & Co, Germany) and centrifuged at 3200 rpm for 10 minutes at 4° C. The plasma was collected and stored at −80° C. until analyzed by liquid chromatography/mass spectrometry/mass spectrometry (LC/MS/MS) analysis.
Aminosteroid measurement: The concentration of the aminosteroid was determined by LC/MS/MS analysis using a procedure developed at the CHUQ (CHUL)—Research Center (Québec, Qc, Canada). Briefly, for extraction from serum, 100 νL, of the serum sample was transferred to individual tubes and 600 μL of ammonium acetate (1 mM) was added. A methanolic solution (50 μL) containing a steroidal internal standard was then added to each tube. Samples were transferred on Strata-X SPE columns (Phenomenex, Torrance, Calif., USA), which have been conditioned with 2 mL of MeOH and 2 mL of water. Each column was washed with 2 mL of MeOH:water (10:90, v/v). The aminosteroid was then eluted with 5 mL of MeOH containing 5 mM ammonium acetate. The MeOH was evaporated at 45° C. under inert atmosphere and the dried residue dissolved in 100 μL of MeOH:water (85:15, v/v). […] The inhibitor was detected using an API 3000 mass spectrometer, equipped with TurbolonSpray (Applied Biosystems, Canada). ESI in positive ion mode was used.

[7] = system: human MCF-7 breast cancer xenografts; experiment: Growth of human MCF-7 breast cancer xenografts in nude mice; assay type: in vivo; settings: OVX nude mice, 60 mg/kg s.c. 3 times a week, E2-stimulated; FIG. 1
Protocol: MCF-7 breast cancer cells were obtained from the ATCC (Rockville, Md.) and were propagated in Dubelcco's Modified Eagle's Medium nutrient mixture F-12 ham (DME-F12) medium supplemented with 5% FBS, glutamine (2 mM), penicillin (100 IU/mL), streptomycin (100 μg/mL) and estradiol (1 nM). These cells were used to induce tumors in homozygous female nu/nu Brathymic mice (28-42 days old) that were obtained from Charles River (Saint-Constant, Canada). Bilateral ovariectomy was performed under isoflurane-induced anesthesia. At the time of ovariectomy, an implant of estradiol (E2) was inserted s.c. to stimulate initial tumor growth. E2 implants were prepared in 1 cm long Silastic tubing (inside diameter 0.062 inch, outside diameter 0.095 inch) containing 5 mm of 1:8 (w/w) mixture of E2 and cholesterol. One week after ovariectomy, 4.1×10^6 MCF-7 cells were inoculated s.c. in 0.1 mL of medium growth+30% Matrigel on both flanks of each ovariectomized (OVX) mouse through a 2.5 cm long 22-gauge needle. After approximately 5 weeks, the mice were randomly assigned to 2 groups according to tumor size. […] The size of tumors was measured by two perpendicular diameters and tumor area (mm^2) was calculated using the formula L/2×W/2×π. The area measured on the first day of treatment was taken as 100% (FIG. 1). […]

[8] = system: MCF-7 breast cancer cells; experiment: Cell proliferation assay (MTS) on MCF-7 breast cancer cells; assay type: cell-based, human; settings: Table 3, 3 days incubation
Protocol: MCF-7 breast cancer cells were maintained in Dulbecco's Modified Eagle's Medium (DMEM) containing a nutriment mixture F-12 ham (DME-F12) (Sigma, Saint Louis, USA) supplemented with 5% (v/v) fetal bovine serum (FBS), L-glutamine ([…]), penicillin (100 IU/ml), streptomycin sulphate (50 μg/ml) and estradiol (1 nM). For the assay, DME-F12 was supplemented with 5% (v/v) charcoal-strippes FBS, insulin (50 ng/ml) and the same concentrations of antibiotics as above.

[9] = system: OVCAR-3 ovarian cancer cells; experiment: Cell proliferation assay (MTS) on OVCAR-3 ovarian cancer cells; assay type: cell-based; settings: Table 3; 3 days incubation, MTS
Source text: For the assay, the culture medium was the same, but without estradiol.

[10] = system: PC-3 (AR−) prostate cancer cells; experiment: Cell proliferation assay (MTS) on PC-3 (AR−) prostate cancer cells; assay type: cell-based; settings: Table 3, 3 days incubation
Protocol: as §1, §2, §3, §4

[11] = system: MDA-MB-231 (ER−) breast cancer cells; experiment: Cell proliferation assay (MTS) on MDA-MB-231 (ER−) breast cancer cells; assay type: cell-based; settings: Table 3, 3 days incubation
Protocol: as §1, §2, §3, §4

SMILES: C[C@]12C[C@H](N3CCN(C(=O)[C@@H]4CCCN4C(=O)c4cccc5ccccc45)CC3)[C@@H](O)C[C@@H]1CC[C@@H]1[C@@H]2CC[C@]2(C)[C@@H](O)CC[C@@H]12 [PC-37]
- IC50 [1]: 1.5 µM
- IC50 [2]: 0.2 µM
- toxicity on normal healthy lymphocytes ([3]; even at high concentrations (>10 μM)): little or no toxicity
- IC50 ([3]; read-out: IC50 Lymph Norm., Table 3, normal lymphocytes, 3 days incubation, MTS): 36 µM
- IC50 ([4]; Table 3, 3 days incubation, MTS, read-out: IC50 HL-60): 2.5 µM
- IC50 ([4]; Table 4, HL-60 cancer cell line, read-out: IC50): 1.9 µM
- IC50 ([4]; Table 6, HL-60 cancer cell line, read-out: IC50 (HL-60)): 1.9 µM
- IC50 (K-562 leukemia cells): 10.6 µM
- IC50 [5]: > 10 µM
- AUC (7 h) ([6]; Table 5, subcutaneous one time): 0.337 µg·h/mL
- AUC (24 h) ([6]; Table 5, subcutaneous one time): 0.552 µg·h/mL
- AUC(12 h) ([6]; Table 5, subcutaneous one time): 0.462 µg·h/mL
- AUC (0-3 h) ([6]; Table 6, subcutaneous one time): 0.097 µg·h/mL
- AUC (0-12 h) ([6]; Table 6, subcutaneous one time): 0.429 µg·h/mL
- growth of human MCF-7 breast cancer xenografts [7]: reduce the growth
- IC50 [8]: 0.5 µM
- IC50 [9]: 1.4 µM
- IC50 [10]: 6.5 µM
- IC50 [11]: > 10 µM
